The values that follow come from PMC5972032, “Evolution of substrate specificity in the Nucleobase-Ascorbate Transporter (NAT) protein family” (Microbial Cell, 2018).

In the assay the target is T1, UapA (Aspergillus nidulans, UniProt Q07307).
T1 construct: full-length, C-terminal GFP tag (plasmid pAN510-GFP), expressed in A. nidulans uapAΔ uapCΔ azgAΔ pabaA1 argB2; homodimer
The assay can be described thus: inhibition of [3H]-xanthine uptake in germinating conidiospores. The class given is cell-based. From the text: inhibition of [3H]-xanthine uptake in germinating conidiospores on UapA | wild-type UapA can indeed bind L-ascorbate with very low affinity, reflected in a Ki

T1 sequence (Q07307 whole entry): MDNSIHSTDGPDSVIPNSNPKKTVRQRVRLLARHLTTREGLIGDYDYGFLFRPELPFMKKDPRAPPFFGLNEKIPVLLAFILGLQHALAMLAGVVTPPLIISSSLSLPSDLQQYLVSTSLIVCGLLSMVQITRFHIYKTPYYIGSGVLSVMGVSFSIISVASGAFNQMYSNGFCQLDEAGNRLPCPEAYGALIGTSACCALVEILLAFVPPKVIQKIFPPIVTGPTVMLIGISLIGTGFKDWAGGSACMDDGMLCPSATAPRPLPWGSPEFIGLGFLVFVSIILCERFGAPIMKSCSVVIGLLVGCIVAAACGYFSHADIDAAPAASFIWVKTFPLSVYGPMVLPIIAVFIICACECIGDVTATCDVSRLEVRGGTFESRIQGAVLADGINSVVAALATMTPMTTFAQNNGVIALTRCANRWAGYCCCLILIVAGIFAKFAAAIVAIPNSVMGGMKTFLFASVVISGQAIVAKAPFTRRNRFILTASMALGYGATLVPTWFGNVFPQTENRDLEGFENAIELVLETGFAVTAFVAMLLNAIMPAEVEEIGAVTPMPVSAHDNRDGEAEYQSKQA

The Ki is the dissociation constant of the complex between target and ligand, obtained from inhibition or displacement. Low readings indicate higher affinity, high ones lower affinity. `O=C1O[C@H]([C@@H](O)CO)C(O)=C1O` [L-ascorbate] came in with a Ki of around 17 mM.
